Each structure is given as a SMILES string.

The assay deals with Recombinant human Mat2a (Homo sapiens (Human), UniProt P31153). In words: Determination of Mat2A activity (384 well absorbance-based assay, Biomol Green). To be noted: 12.5 nM Mat2A, 100 μM ATP and Methionine, 2% DMSO, 120 minutes at RT, absorbance at 635 nm; read-out: MAT2A_LEC IC50 (uM) (Num). The assay is classed as biochemical. The method, then: Determination of Mat2A Activity
Measurement of Mat2A inhibition is performed in 384 well format absorbance-based assay. Recombinant human Mat2a (12.5 nM) and serial diluted compounds in DMSO (range of concentrations from 10 μM to 508 pM) or controls (DMSO) are incubated for 15 minutes at room temperature (RT) in assay buffer containing 50 mM HEPES pH 7.5, 50 mM KCl, 50 mM MgCl2, 0.01%Tween 20 and 10 mM DTT. The reaction is initiated by the addition of the combined substrates ATP and Methionine, each at a final concentration of 100 μM. Final assay condition are 12.5 nM Mat2A, 100 μM ATP and Methionine Substrates and 2% DMSO. After 120 minutes of incubation at RT, the reaction is stopped by the addition of Biomol Green. The absorbance signal is measured at λ=635 nm with a multiplate reader (BMG Pherastar reader or equivalent) after 30 min of equilibration at RT.

Chain of Recombinant human Mat2a (P31153 whole entry): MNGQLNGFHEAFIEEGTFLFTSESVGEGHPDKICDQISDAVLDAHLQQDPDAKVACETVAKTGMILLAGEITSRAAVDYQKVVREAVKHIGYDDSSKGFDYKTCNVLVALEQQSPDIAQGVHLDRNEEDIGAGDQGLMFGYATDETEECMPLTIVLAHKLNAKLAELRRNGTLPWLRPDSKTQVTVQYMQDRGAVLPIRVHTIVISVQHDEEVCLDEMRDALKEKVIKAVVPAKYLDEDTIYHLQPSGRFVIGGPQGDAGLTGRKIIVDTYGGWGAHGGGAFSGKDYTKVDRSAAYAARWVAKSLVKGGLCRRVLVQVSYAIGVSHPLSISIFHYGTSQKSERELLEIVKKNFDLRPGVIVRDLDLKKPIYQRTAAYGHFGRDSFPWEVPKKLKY

As for `Cc1cc(-c2c(S(C)(=O)=O)ccc3[nH]nc(OC(F)F)c23)ccc1S(=O)(=O)C1CC1` [Example 55, 4-(4-cyclopropylsulfonyl-3-methyl-phenyl)-3-(difluoromethoxy)-5-methylsulfonyl-1H-indazole], the IC50 was < 0.013 µM.
On to `Cc1cc(-c2nccc3[nH]nc(Br)c23)ccc1S(C)(=O)=O` [Example 56, 3-bromo-4-(3-methyl-4-(methylsulfonyl)phenyl)-1H-pyrazolo[4,3-c]pyridine], for which the IC50 was found to be 0.19 µM.
Regarding `Cc1cc(-c2nccc3[nH]nc(OC(F)F)c23)ccc1S(C)(=O)=O` [Example 57, 3-(difluoromethoxy)-4-(3-methyl-4-(methylsulfonyl)phenyl)-1H-pyrazolo[4,3-c]pyridinepyridine], the IC50 is < 0.013 µM.
With `COc1n[nH]c2ccnc(-c3ccc(S(C)(=O)=O)c(C)c3)c12` [Example 58, 3-methoxy-4-(3-methyl-4-(methylsulfonyl)phenyl)-1H-pyrazolo[4,3-c]pyridine], the IC50 was 0.24 µM.
The figure for `CS(=O)(=O)c1ccc(-c2nccc3[nH]nc(C4CC4)c23)cc1N` [Example 59, 5-(3-cyclopropyl-1H-pyrazolo[4,3-c]pyridin-4-yl)-2-(methylsulfonyl)aniline] is 0.26 µM; for `Cc1cc(-c2nccc3[nH]nc(S(C)(=O)=O)c23)ccc1S(C)(=O)=O` [Example 60, 4-(3-methyl-4-(methylsulfonyl)phenyl)-3-(methylsulfonyl)-1H-pyrazolo[4,3-c]pyridine] it is 0.29 µM.
For `Cc1cc(-c2nccc3[nH]nc(C#N)c23)ccc1S(C)(=O)=O` [Example 61, 4-(3-methyl-4-(methylsulfonyl)phenyl)-1H-pyrazolo[4,3-c]pyridine-3-carbonitrile], the concentration for half-maximal inhibition (IC50) worked out at 0.25 µM.
For `Cc1cc(-c2c(C(=O)O)ncc3[nH]nc(C4CC4)c23)ccc1S(C)(=O)=O` [Example 62, 3-cyclopropyl-4-(3-methyl-4-(methylsulfonyl)phenyl)-1H-pyrazolo[3,4-c]pyridine-5-carboxylic acid], the IC50 was < 0.013 µM.
On to `Cc1cc(-c2c(C#N)ccc3[nH]nc(C4CC4)c23)ccc1S(C)(=O)=O` [Example 63, 3-cyclopropyl-4-(3-methyl-4-methylsulfonylphenyl)-1H-indazole-5-carbonitrile], for which the IC50 is < 0.013 µM.
With `Cc1cc(-c2ncc(O)c3[nH]nc(C4CC4)c23)ccc1S(C)(=O)=O` [Example 64, 3-cyclopropyl-4-(3-methyl-4-methylsulfonyl-phenyl)-1H-pyrazolo[4,3-c]pyridin-7-ol], the IC50 came to 0.2 µM.
The figure for `Cc1cc(-c2nccc3[nH]nc(-c4ccsc4)c23)ccc1S(C)(=O)=O` [Example 65, 4-(3-methyl-4-(methylsulfonyl)phenyl)-3-(thiophen-3-yl)-1H-pyrazolo[4,3-c]pyridine] is 0.52 µM; for `CCOc1n[nH]c2ccnc(-c3ccc(S(C)(=O)=O)c(C)c3)c12` [Example 66, 3-ethoxy-4-(3-methyl-4-methylsulfonyl-phenyl)-1H-pyrazolo[4,3-c]pyridine] it is 0.13 µM.
As to `Cc1cc(-c2ncc(F)c3[nH]nc(C4CC4)c23)ccc1S(C)(=O)=O` [Example 67, 3-cyclopropyl-7-fluoro-4-(3-methyl-4-methylsulfonyl-phenyl)-1H-pyrazolo[4,3-c]pyridine], the IC50 was found to be 0.025 µM.
As to `COc1n[nH]c2ccc(C#N)c(-c3ccc(S(C)(=O)=O)c(C)c3)c12` [Example 68, 3-methoxy-4-(3-methyl-4-(methylsulfonyl)phenyl)-1H-indazole-5-carbonitrile], the IC50 is < 0.013 µM.
Regarding `Cc1cc(-c2c(C#N)ccc3[nH]nc(OC(F)F)c23)ccc1S(C)(=O)=O` [Example 69, 3-(difluoromethoxy)-4-(3-methyl-4-(methylsulfonyl)phenyl)-1H-indazole-5-carbonitrile], the IC50 was < 0.013 µM.
For `COc1cc2[nH]nc(C3CC3)c2c(-c2ccc(S(C)(=O)=O)c(C)c2)n1` [Example 70, 3-cyclopropyl-6-methoxy-4-(3-methyl-4-methylsulfonylphenyl)-1H-pyrazolo[4,3-c]pyridine] the value was 0.061 µM; for `Cc1cc(-c2nccc3[nH]nc(OC(F)(F)F)c23)ccc1S(C)(=O)=O` [Example 71, 4-(3-methyl-4-(methylsulfonyl)phenyl)-3-(trifluoromethoxy)-1H-pyrazolo[4,3-c]pyridine], < 0.013 µM; for `Cc1cc(-c2c(C(N)=O)ncc3[nH]nc(C4CC4)c23)ccc1S(C)(=O)=O` [Example 72, 3-cyclopropyl-4-(3-methyl-4-(methylsulfonyl)phenyl)-1H-pyrazolo[3,4-c]pyridine-5-carboxamide], < 0.013 µM.
For the molecule `CNC(=O)c1ncc2[nH]nc(C3CC3)c2c1-c1ccc(S(C)(=O)=O)c(C)c1` [Example 73], the IC50 was < 0.013 µM.
As to `Cc1cc(-c2nncc3[nH]nc(C4CC4)c23)ccc1S(C)(=O)=O` [Example 74, 3-cyclopropyl-4-(3-methyl-4-(methylsulfonyl)phenyl)-1H-pyrazolo[3,4-d]pyridazine], the IC50 stood at 0.11 µM.
With `CSc1ccc2[nH]nc(C3CC3)c2c1-c1ccc(S(C)(=O)=O)c(C)c1` [Example 75, 3-cyclopropyl-4-(3-methyl-4-(methylsulfonyl)phenyl)-5-(methylthio)-1H-indazole], the IC50 was determined as 0.013 µM.
The figure for `Cc1cc(-c2c([S+](C)[O-])ccc3[nH]nc(C4CC4)c23)ccc1S(C)(=O)=O` (stereo not shown) [Example 76, 3-cyclopropyl-4-(3-methyl-4-(methylsulfonyl)phenyl)-5-(methylsulfinyl)-1H-indazole] is 0.26 µM.
For `Cc1cc(-c2c(S(C)(=O)=O)ccc3[nH]nc(C4CC4)c23)ccc1S(C)(=O)=O` [Example 77, 3-cyclopropyl-4-(3-methyl-4-(methylsulfonyl)phenyl)-5-(methylsulfonyl)-1H-indazole], the IC50 turned out to be 0.013 µM.
For the molecule `Cc1cc(-n2c(=O)ccc3[nH]nc(OC(F)F)c32)ccc1S(C)(=O)=O` [Example 78, 3-(difluoromethoxy)-4-(3-methyl-4-methylsulfonyl-phenyl)-1H-pyrazolo[4,3-b]pyridin-5-one], the IC50 is < 0.013 µM.
`Cc1cc(-c2c(C(F)(F)F)ncc3[nH]nc(C4CC4)c23)ccc1S(C)(=O)=O` [Example 79, 3-cyclopropyl-4-(3-methyl-4-methylsulfonylphenyl)-5-(trifluoromethyl)-1H-pyrazolo[3,4-c]pyridine]: the IC50 is < 0.013 µM.
With `Cc1cc(-n2c(=O)c(C)cc3[nH]nc(C4CC4)c32)ccc1S(C)(=O)=O` [Example 80, 3-cyclopropyl-6-methyl-4-(3-methyl-4-methylsulfonyl-phenyl)-1H-pyrazolo[4,3-b]pyridin-5-one], the IC50 came out at 0.031 µM.
For `Cc1cc(-n2c(=O)c(C3CC3)cc3[nH]nc(C4CC4)c32)ccc1S(C)(=O)=O` [Example 81, 3,6-dicyclopropyl-4-(3-methyl-4-methylsulfonyl-phenyl)-1H-pyrazolo[4,3-b]pyridin-5-one] the value was 0.079 µM; for `Cc1cc(-c2c(OC(F)F)ncc3[nH]nc(C4CC4)c23)ccc1S(C)(=O)=O` [Example 82, 3-cyclopropyl-5-(difluoromethoxy)-4-(3-methyl-4-(methylsulfonyl)phenyl)-1H-pyrazolo[3,4-c]pyridine], < 0.013 µM.

The values are drawn from patent US12565497B2 (Hoffmann-La Roche Inc., priority 2020, dated 2026).
